Reference: patent US12509460B2 (Skyhawk Therapeutics, Inc., priority 2019, dated 2025)

Legend:
[1] = system: mHTT protein in GM04724 (CAG 70/20) Huntington's disease patient lymphoblast cells; test: mHTT protein assay, 2B7-MW1 assay via Mesoscale Discovery (MSD); type: cell-based, human; details: GM04724 Huntington's disease patient lymphoblasts
In short: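 Signal from the 2B7-MW1 antibody pair on MSD, rising with polyQ length and smaller HTT fragments, measured mHTT after 48 h compound exposure (0.6 nM–10 μM) in GM04724 cells. A parallel replicate plate gave CellTiter Glo viability.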

MDR1 (P-gp) = test: Blood-brain-barrier (BBB) penetration potential via MDCK-MDR1 permeability assay; details: dog; for Papp A→B at 120 min, 5 μM: MDCK-MDR1, pH 7.4, MDCK-MDR1: Papp A-B, A-B direction; for Papp B→A at 120 min, 5 μM: MDCK-MDR1, pH 7.4, MDCK-MDR1: Papp B-A, B-A direction
MDR1 = test: as above; details: dog, MDCK-MDR1, pH 7.4, MDCK-MDR1: Efflux, efflux ratio
[2] = system: MDR1-MDCK cell monolayers; test: as above; details: for MDCK-MDR1: % Recov A-B: A-B direction; for MDCK-MDR1: % Recov B-A: B-A direction
[3] = system: SMN FL and SMN Δ7 in spinal muscular atrophy (SMA) patient fibroblasts (GM03813, Coriell); test: Quantitative splicing assay (SMN), qPCR; type: cell-based, human; details: Homo sapiens, Fibroblast, 24 h, SMA patient fibroblasts GM03813, 24 h, qPCR; read-out: SMN2 Splicing FL EC50
Description: Spinal muscular atrophy (SMA) patient fibroblasts (GM03813, Coriell) are plated in 96-well plates at 50,000 cells/well. […] Treated cells are lysed and cDNA synthesized using the Fast Advanced Cells-to-Ct kit (Thermofisher A35378) according to the manufacturer's instructions. 2 μL of each cDNA are used in qPCR reactions. […] Reactions are run in a Quant Studio 6 qPCR instrument with default settings.

[4] = system: SMN protein in spinal muscular atrophy (SMA) patient fibroblasts (GM03813, Coriell); test: SMN protein assay, Mesoscale Discovery (MSD); type: cell-based, human; details: SMA patient fibroblasts GM03813, 48 hours, MSD; for EC50: read-out: SMN2 protein EC50
In short: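 Absolute SMN levels were quantified by MSD against an SMN protein standard curve (1 μg/ml to 19.5 pg/ml) run on each plate. Samples were lysates of GM03813 patient fibroblasts (7000 cells/well) treated 48 hours with compound doses from 2.5 μM down to 0.6 nM.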

Row | SMILES | EC50 [1] | Papp A→B at 120 min, 5 μM (MDR1 (P-gp)) | Papp B→A at 120 min, 5 μM (MDR1 (P-gp)) | efflux ratio at 120 min, 5 μM (MDR1) | MDCK-MDR1: % Recov A-B [2] | MDCK-MDR1: % Recov B-A [2] | EC50 [3] | EC50 [4] | SMN2 protein EC50 [4] | mHTT protein EC50 [1]
1 | CN(C)C(=O)c1cc2cc(O)c(-c3ccc(N(C)[C@H]4C[C@@H]5CC[C@@H](N5)[C@H]4F)nn3)cc2o1 [Compound 9B, 6-(6-(((1R,2R,3S,5S)-2-fluoro-8-azabicyclo[3.2.1]octan-3-yl)(methyl)amino)pyridazin-3-yl)-5-hydroxy-N,N-dimethylbenzofuran-2-carboxamide] | 101 to 500 nM | 0.62 ×10⁻⁶ cm/s | 48.2 ×10⁻⁶ cm/s | 78 | 88% | 100% | 101 to 500 nM | 16 to 50 nM | – | –
2 | CN(c1ccc(-c2ccc(-n3ccnc3)cc2O)nn1)[C@@H]1C[C@H]2CCC[C@H](N2)[C@@H]1F [Compound 11A, 2-(6-(((1S,2S,3R,5R)-2-fluoro-9-azabicyclo[3.3.1]nonan-3-yl)(methyl)amino)pyridazin-3-yl)-5-(1H-imidazol-1-yl)phenol] | 0.01 to 15 nM | 2.76 ×10⁻⁶ cm/s | 53.2 ×10⁻⁶ cm/s | 19 | 79% | 90% | 51 to 100 nM | 0.01 to 15 nM | – | –
3 | CN(c1ccc(-c2ccc(-c3cnn(C)c3)cc2O)nn1)[C@H]1C[C@@H]2CCC[C@@H](N2)[C@H]1F [Compound 15B, 2-(6-(((1R,2R,3S,5S)-2-fluoro-9-azabicyclo[3.3.1]nonan-3-yl)(methyl)amino)pyridazin-3-yl)-5-(1-methyl-1H-pyrazol-4-yl)phenol] | 0.01 to 15 nM | 3.21 ×10⁻⁶ cm/s | 39.3 ×10⁻⁶ cm/s | 12 | 62% | 84% | 0.01 to 15 nM | 0.01 to 15 nM | – | –
4 | COc1cn(-c2ccc(-c3ccc(N(C)[C@@H]4C[C@H]5CC(F)(F)[C@@H](C4)N5)nn3)c(O)c2)cn1 [Compound 19A, 2-(6-(((1S,3R,5R)-6,6-difluoro-8-azabicyclo[3.2.1]octan-3-yl)(methyl)amino)pyridazin-3-yl)-5-(4-methoxy-1H-imidazol-1-yl)phenol] | 51 to 100 nM | 10.1 ×10⁻⁶ cm/s | 56.6 ×10⁻⁶ cm/s | 6 | 81% | 94% | 51 to 100 nM | 0.01 to 15 nM | – | –
5 | CN(c1ccc(-c2ccc(-c3cnn(C(F)F)c3)cc2O)nn1)[C@@H]1C[C@H]2CCC[C@H](N2)[C@@H]1F [Compound 21A, 5-(1-(difluoromethyl)-1H-pyrazol-4-yl)-2-(6-(((1S,2S,3R,5R)-2-fluoro-9-azabicyclo[3.3.1]nonan-3-yl)(methyl)amino)pyridazin-3-yl)phenol] | 16 to 50 nM | 1.99 ×10⁻⁶ cm/s | 19.3 ×10⁻⁶ cm/s | 10 | 34% | 71% | 51 to 100 nM | 0.01 to 15 nM | – | –
6 | CN(c1ccc(-c2ccc(-c3ccccn3)cc2O)nn1)[C@@H]1C[C@H]2CCC[C@H](N2)[C@@H]1F [Compound 23A, 2-(6-(((1S,2S,3R,5R)-2-fluoro-9-azabicyclo[3.3.1]nonan-3-yl)(methyl)amino)pyridazin-3-yl)-5-(pyridin-2-yl)phenol] | 51 to 100 nM | 3.33 ×10⁻⁶ cm/s | 34.9 ×10⁻⁶ cm/s | 10 | 64% | 83% | 51 to 100 nM | 16 to 50 nM | – | –
7 | Cc1ccc(-c2ccc(-c3ccc(N(C)[C@@H]4C[C@H]5CCC[C@H](N5)[C@@H]4F)nn3)c(O)c2)nn1 [Compound 27A, 2-(6-(((1S,2S,3R,5R)-2-fluoro-9-azabicyclo[3.3.1]nonan-3-yl)(methyl)amino)pyridazin-3-yl)-5-(6-methylpyridazin-3-yl)phenol] | 101 to 500 nM | 1.08 ×10⁻⁶ cm/s | 46.6 ×10⁻⁶ cm/s | 43 | 90% | 86% | 51 to 100 nM | 0.01 to 15 nM | – | –
8 | CN(c1ccc(-c2ccc(C#N)cc2O)nn1)[C@@H]1C[C@H]2CC[C@H](N2)[C@@H]1F [Compound 38A, 4-(6-(((1S,2S,3R,5R)-2-fluoro-8-azabicyclo[3.2.1]octan-3-yl)(methyl)amino)pyridazin-3-yl)-3-hydroxybenzonitrile] | 101 to 500 nM | 13 ×10⁻⁶ cm/s | 39.2 ×10⁻⁶ cm/s | 3 | 83% | 85% | 16 to 50 nM | – | E (501 ≤ E ≤ 10.000) | –
9 | CN(c1ccc(-c2ccc(C#N)cc2O)nn1)[C@H]1C[C@@H]2CC[C@@H](N2)[C@H]1F [Compound 38B, 4-(6-(((1R,2R,3S,5S)-2-fluoro-8-azabicyclo[3.2.1]octan-3-yl)(methyl)amino)pyridazin-3-yl)-3-hydroxybenzonitrile] | 16 to 50 nM | 18.9 ×10⁻⁶ cm/s | 47.1 ×10⁻⁶ cm/s | 2 | 95% | 102% | 16 to 50 nM | 16 to 50 nM | – | –
10 | CN(c1ccc(-c2cc3cccnc3cc2O)nn1)[C@@H]1C[C@H]2CC(F)(F)[C@@H](C1)N2 [Compound 45A, 6-(6-(((1S,3R,5R)-6,6-difluoro-8-azabicyclo[3.2.1]octan-3-yl)(methyl)amino)pyridazin-3-yl)quinolin-7-ol] | 51 to 100 nM | 9.45 ×10⁻⁶ cm/s | 54.6 ×10⁻⁶ cm/s | 6 | 104% | 115% | 101 to 500 nM | 16 to 50 nM | – | –
11 | CN(c1ccc(-c2cc3ncn(CC(F)(F)F)c(=O)c3cc2O)nn1)[C@@H]1C[C@H]2CCC[C@H](N2)[C@@H]1F [Compound 58A, 7-(6-(((1S,2S,3R,5R)-2-fluoro-9-azabicyclo[3.3.1]nonan-3-yl)(methyl)amino)pyridazin-3-yl)-6-hydroxy-3-(2,2,2-trifluoroethyl)quinazolin-4(3H)-one] | 101 to 500 nM | 0.36 ×10⁻⁶ cm/s | 71.4 ×10⁻⁶ cm/s | 201 | 86% | 89% | 101 to 500 nM | 0.01 to 15 nM | – | –
12 | CN(c1ccc(-c2cc3ncn(CC(F)(F)F)c(=O)c3cc2O)nn1)[C@H]1C[C@@H]2CCC[C@@H](N2)[C@H]1F [Compound 58B, 7-(6-(((1R,2R,3S,5S)-2-fluoro-9-azabicyclo[3.3.1]nonan-3-yl)(methyl)amino)pyridazin-3-yl)-6-hydroxy-3-(2,2,2-trifluoroethyl)quinazolin-4(3H)-one] | – | 0.43 ×10⁻⁶ cm/s | 53.9 ×10⁻⁶ cm/s | 126 | 76% | 85% | 0.01 to 15 nM | 0.01 to 15 nM | – | E (501 ≤ E ≤ 10.000)
13 | CN(c1ccc(-c2cc3ncn(CC(F)(F)F)c(=O)c3cc2O)nn1)[C@@H]1C[C@H]2CC(F)(F)[C@@H](C1)N2 [Compound 59A, 7-(6-(((1S,3R,5R)-6,6-difluoro-8-azabicyclo[3.2.1]octan-3-yl)(methyl)amino)pyridazin-3-yl)-6-hydroxy-3-(2,2,2-trifluoroethyl)quinazolin-4(3H)-one] | 101 to 500 nM | 2.11 ×10⁻⁶ cm/s | 74 ×10⁻⁶ cm/s | 35 | 97% | 96% | 51 to 100 nM | 16 to 50 nM | – | –
14 | CN(c1ccc(-c2ccc(-n3ccnn3)cc2O)nn1)[C@@H]1C[C@H]2CC[C@H](N2)[C@@H]1F [Compound 61A, 2-(6-(((1S,2S,3R,5R)-2-fluoro-8-azabicyclo[3.2.1]octan-3-yl)(methyl)amino)pyridazin-3-yl)-5-(1H-1,2,3-triazol-1-yl)phenol] | 16 to 50 nM | 4.29 ×10⁻⁶ cm/s | 60.3 ×10⁻⁶ cm/s | 14 | 91% | 88% | 16 to 50 nM | 0.01 to 15 nM | – | –
15 | CN(c1ccc(-c2ccc(-n3cnc(C#N)c3)cc2O)nn1)[C@@H]1C[C@H]2CCC[C@H](N2)[C@@H]1F [Compound 63A, 1-(4-(6-(((1S,2S,3R,5R)-2-fluoro-9-azabicyclo[3.3.1]nonan-3-yl)(methyl)amino)pyridazin-3-yl)-3-hydroxyphenyl)-1H-imidazole-4-carbonitrile] | 51 to 100 nM | 1.5 ×10⁻⁶ cm/s | 46 ×10⁻⁶ cm/s | 31 | 76% | 91% | 16 to 50 nM | 0.01 to 15 nM | – | –
